# Experimental data published in patent publication US20090162329A1, “COMPOSITIONS COMPRISING HDAC INHIBITORS AND METHODS OF THEIR USE IN RESTORING STEM CELL FUNCTION AND PREVENTING HEART FAILURE” (priority 2007, published 2009).
# “Also recorded” adds a separate entry of the source.
# Legend:
# [1] = system: histone H3; assay: Histone H3 methylation in ESCs by Western blotting (FIG. 15); type: cell-based; details: mouse ESCs, loading by histone H1
# Procedure: FIG. 15. Histone methylation in VPCs, MPCs and ESCs. A: H3K79me2 is present in MPCs and absent in VPCs. B: Shear stress (SS) induces a 4-5-fold increase in H3K79me2 in mouse ESCs. […] Equal loading is determined on the basis of histone H1.
# Western blotting. Genome-wide methylation and acetylation of histone 3 and histone 4 are analyzed. Protein lysates are obtained with Laemmli buffer containing β-mercaptoethanol. Proteins are separated on 15% SDS-PAGE, transferred onto nitrocellulose and exposed to specific antibodies against different histone modifications (H3K9me2/3, H3K27me3, H3K4me2/3, H3K79me3, H4K20me2, H4K5Ac, H4K8Ac, H4K12Ac, H4K16Ac, H3K9Ac, H3K14Ac). Loading conditions are determined by β-actin expression (6, 7, 58, 59). In a similar manner, HDAC expression is quantified in total cell lysates and in nuclear and cytoplasmic lysates (249, 250).
# [2] = system: ESCs; assay: Effect of HDAC inhibitors on ESC differentiation after LIF removal (FIG. 23); type: cell-based, mouse; details: following LIF removal
# From the text: FIG. 23. Effect of HDAC inhibitors on ESC differentiation. […] DAPI, blue.
# [3] = system: HDAC; details: mouse ESCs, nuclear HDAC activity
# Procedure: E: The activity of HDAC was measured by employing acetylated H4 as substrate.
# [4] = system: class I and II HDAC; details: cited from earlier work
# [5] = system: myocardial hypertrophy; details: following pressure overload; cited from earlier work
# [6] = system: DNA methyltransferases; details: ECs and non-EC types; cited from earlier work
SMILES,overall methylation level of histone H3 [1],neuronal differentiation of ESCs (nestin expression) [2],increase of HDAC activity early after LIF depletion [3],cell cycle arrest and differentiation [4],myocardial hypertrophy [5],"differentiation of ESCs into cardiovascular lineages / cardiac cell phenotypes (flk1, CD31, SM22, α-SA) [2]",eNOS mRNA [6]
CC(/C=C/C(=O)NO)=C\[C@@H](C)C(=O)c1ccc(N(C)C)cc1 [Trichostatin A],reduces the overall methylation level of histone H3,selective expression of nestin,inhibited,induces cell cycle arrest and differentiation,blunts myocardial hypertrophy,,
Nc1ccccc1NC(=O)c1ccc(CNC(=O)OCc2cccnc2)cc1 [MS27-275],,opposes neuronal commitment,,,,triggers differentiation of ESCs to cardiac cell phenotypes; also recorded: promotes the preferential differentiation of ESCs into cardiovascular lineages,
Nc1ncn([C@@H]2O[C@H](CO)[C@@H](O)[C@H]2O)c(=O)n1 [5-azacytidine],,,,,,,induces the upregulation of eNOS mRNA
Cn1c(/C=C/C(=O)NO)ccc1/C=C/C(=O)c1cccc(F)c1 [MC1568],,favors neuronal differentiation; also recorded: selective expression of nestin,,,,inhibits the cardiac commitment of ESCs,
